Measured values as given in patent US10412960B2, “Microparticles and nanoparticles made up of hydrophobized polysaccharides and an alpha-cyclodextrine” (priority 2012, dated 2019).

What was measured:
[1] = Encapsulation of active ingredients in the particles; format: physicochemical
Description: The protocol adopted for encapsulating the hydrophilic active ingredients is to dissolve the active ingredient in water at an initial concentration as indicated in Table 5 and then adding the amphiphilic polysaccharide and the α-cyclodextrin. The mixture is magnetically stirred for 3 days. After this mixing for 3 days, the concentration of the active ingredient that has not been encapsulated is determined in the supernatant of the preparation. The supernatant is separated either by simple sedimentation or by centrifugation of the microparticles, or after ultracentrifugation in the case of the nanoparticles.
The protocol adopted for encapsulating the hydrophobic active ingredients is to dissolve the active ingredient in an ethanol/water mixture at an initial concentration as shown in Table 26 and then add the amphiphilic polysaccharide and the α-cyclodextrin. The mixture is maintained under magnetic stirring for 3 days. After mixing for 3 days, the concentration of the active ingredient that has not been encapsulated is determined in the supernatant of the preparation. The supernatant is separated either by simple sedimentation or by centrifugation of the microparticles, or after ultracentrifugation in the case of the nanoparticles.

bacterial adhesion = conditions: heparin coating of abiotic surfaces; cited from earlier work
Candida albicans = conditions: heparin coating of abiotic surfaces; cited from earlier work
[2] = polysaccharide MC6, initial concentration 21.7 g/L, water
[3] = polysaccharide MC8, initial concentration 21.7 g/L, water
[4] = polysaccharide MC9, initial concentration 2.33 g/L, water
[5] = polysaccharide MC6, ethanol/water 40/60 % v/v, initial concentration 3.5 g/L
[6] = polysaccharide MC11, initial concentration 2.34 g/L, water
[7] = polysaccharide MC8, initial concentration 194 g/L, water
[8] = polysaccharide MC9, initial concentration 2.31 g/L, water

Work on Cn1c(=O)c2c(ncn2C)n(C)c1=O [Caffeine] yielded a Concentration encapsulated [1, 2] of 3590 µg/mL, an Encapsulation yield [1, 2] of 16.55% and a Concentration encapsulated [1, 3] of 3150 µg/mL. The Encapsulation yield [1, 3] was 17.53%, the Concentration encapsulated [1, 4] was 510 µg/mL and the Encapsulation yield [1, 4] was 22.23%.
Work on CC(C(=O)O)c1cccc(C(=O)c2ccccc2)c1 (stereo not shown) [Ketoprofen] yielded an Encapsulated concentration [1, 5] of 1.09 g/L and an Encapsulation yield [1, 5] of 31.12%.
CC(=O)Nc1ccc(O)cc1 [Paracetamol] showed a Concentration encapsulated [1, 6] of 780 µg/mL and an Encapsulation yield [1, 6] of 33.33%.
Cc1ncc(CO)c(CO)c1O.Cl [Vitamin B6] showed a Concentration encapsulated [1, 7] of 104650 µg/mL, an Encapsulation yield [1, 7] of 53.94% and a Concentration encapsulated [1, 8] of 1520 µg/mL. It also gave an Encapsulation yield [1, 8] of 65.82%.
For Heparin, the “reduction of bacterial adhesion” value (bacterial adhesion) is listed as 90% and the “reduction of adhesion of Candida albicans” value (Candida albicans) is listed as “approximately 50%”.
